Source: publication PMC6503114, “Application of Antimicrobial Peptides of the Innate Immune System in Combination With Conventional Antibiotics—A Novel Way to Combat Antibiotic Resistance?” (Frontiers in Cellular and Infection Microbiology, 2019)
≈ marks a conversion by molar mass, not a printed value. Read-outs that look alike come from different tables or passages of the source. Where no end group is shown, it is not given here.

How the values were obtained:
M. luteus CIP A270 = test: microbe, parasite or virus in culture; type: cell-based, Micrococcus luteus
Method: Prior to the “checkerboard” synergy test the minimal inhibitory concentrations (MIC) of individual substances were determined using broth microdilution assay. Testing was performed in 60-well polystyrene Terasaki microplates with V-shaped bottom generally according to the guidelines of the European Committee for Antimicrobial Susceptibility Testing with subtle modifications designed for AMP testing (Tossi et al., [1997]; Wiegand et al., [2008]). Cultivation of bacteria was carried out in 2.1% Müller-Hinton broth at 37°C with shaking. Two-fold serial dilutions of peptides, antibiotics and other antimicrobials were made with 10 mM sodium phosphate buffer, pH 7.4, containing 0.1% of BSA. The plates were preliminary incubated with 0.1% BSA for 1 h at 37°C to reduce a non-specific binding of peptides to the plates. After that BSA was removed, and serial dilutions were added into the plate wells in triplicates followed by the same volume of the suspension of bacterial cells in logarithmic phase of growth in concentration of 1 × 10^6 CFU/ml. After the 18 h overnight incubation at 37°C, the MIC value for each compound was determined as its lowest concentration completely inhibiting the visible growth of bacteria. The final results were calculated as median values based on 3–6 independent experiments.

human erythrocytes = tested on: human erythrocytes
Method: To obtain erythrocytes, heparinized blood was centrifuged for 10 min at 300 g and 4°C. The supernatant liquid was removed, 10 ml of cooled PBS containing 4 mM of EDTA (pH 7.4) was added to the precipitate, and the mixture was centrifuged for 10 min under the same conditions. Then, red blood cells were washed three more times with cooled PBS. The sedimented red blood cells were used for the hemolytic test.
(§1) Here, [MEC A] and [MEC B] are the minimum effective concentrations (MEC) of substances A and B, when they are used alone. […] [A] and [B] are respective concentrations of substances A and B in their combination, where the same statistically significant difference is detected. A non-parametric Mann-Whitney U-test (p < 0.05 or p < 0.01) was used for the mentioned statistical comparison.
(§2) We have chosen the same intervals as that of FICI to determine synergy, additivity, independent action, and antagonism based on the minimal FECI values. However, in case of cytotoxic or hemolytic effect we were interested mainly in testing the possibility of additive or synergistic interaction itself, and not in assessing the exact magnitude of such interaction. Thus, in contrast to the “checkerboard titration” method used for combined antimicrobial activity investigation, studying the combined cytotoxic effect, we considered only two combinations of concentrations for the substances A and B in the mixture: • (½ MEC A + ½ MEC B), which, if found effective, provides the FECI value of 1 (the threshold value for additivity); • (¼ MEC A + ¼ MEC B), which, if found effective, provides the FECI value of 0.5 (the threshold value for synergetic interaction).
(§3) When action on tumor cells was tested in combination with antitumor antibiotic the lower concentrations up to ( 1/16 MEC A + 1/16 MEC B) as in checkerboard titration were additionally examined to assess the magnitude of synergistic effect more precisely. The final conclusion was made based on the three independent experiments.
Two hundred eighty microliters of erythrocyte precipitate obtained as described in section Eukaryotic Cells was added into the sterile 15 ml tube and its volume was adjusted to 10 ml with cooled PBS. Using 0.5 ml plastic tubes, 3 μl of the tested compound serially diluted in PBS or of the combination of two compounds were mixed with the 27 μl of the prepared erythrocyte suspension for each sample. For positive control (100% lysis of erythrocytes) 3 μl of the detergent (10% Triton X-100 solution in PBS) were added to the 27 μl of the erythrocyte suspension, and for negative control (0% lysis of erythrocytes) 3 μl of the PBS were used instead of any cell-damaging compound. […] After incubation, the hemolysis process was stopped by the addition of 75 μl of cooled PBS. The samples were centrifuged at 5,000 g and 4°C for 4 min. The optical density of the supernatants was measured at a wavelength of 540 nm using SpectraMax 250 Spectrophotometer (Molecular Devices, USA). The experiments were repeated three times. In each experiment all the test or control samples were made in triplicates. The percentage of hemolysis of erythrocytes was assessed by the following formula:
where ODsample, OD0%lysis, and OD100%lysis are values of the OD at 540 nm for the test sample, negative (0% lysis) control, and positive (100% lysis) control, respectively. However, due to the design of the study of combined action, described above in Combined Hemolytic or Cytotoxic Action, the obtained ODsample and OD0%lysis values were rather used to determine MECs and FECI by the Mann-Whitney U-test (p < 0.05, n1, n2 = 3).

Murine EAC = test: MTT-test; type: cell-based, mice; details: Murine EAC tumor cells, 24 h
Method: Before the cells extraction, mice were sacrificed by cervical dislocation in accordance with the supplement to the Directive 86/609/EEC and its update Directive 2010/63/EU addressing the recommendations for euthanasia of experimental animals (Close et al., [1996]). To obtain peritoneal macrophages, healthy mice were used. The abdominal cavity of each animal was washed with 3 ml of sterile PBS using a Pasteur pipette. The culture of EAC cells was kindly provided by Dr. E.P. Kiseleva (Immunology Department of the Institute of Experimental Medicine, Saint Petersburg, Russia). On the tenth day after the intraperitoneal tumor inoculation, 0.5–1.5 ml of ascitic fluid containing EAC cells was obtained from the abdominal cavity of the animals. Murine cells (normal or tumor) were washed twice with 10 ml of sterile PBS and resuspended in RPMI-1640 medium as described above for human neutrophils and PBMC.
We calculated Fractional Effective Concentration Index (FECI), which could be seen as a particular case of the interaction index (I) proposed by Berenbaum ([1977]) or of the similar combination index (CI) proposed by Chou and Talalay ([1983]), according to the equation below: […]
as §1, §2, §3
Standard MTT-test (Mosmann, [1983]) was used for the examination of the cytotoxic activity of antimicrobial compounds and their combinations toward varied eukaryotic cells. Briefly, cell suspensions in RPMI-1640 prepared as described in Eukaryotic Cells were dispensed into the 96-well microplates (2 × 10^5 cells/well). Then, serial dilutions of AMPs, or other antibiotic compounds, or their mixtures in RPMI-1640 were added. In positive controls (100% cell survival) the according volume of RPMI-1640 without test substances was added instead. The final volume in each well was 100 μl. Negative controls (0% cell survival) were made with 100 μl of the sterile RPMI-1640. The plates were incubated at 37°C under 5% CO2 for 24 h. Four hours before the end of incubation, 10 μl of metabolic marker MTT−3-(4,5-dimethylthiazol-2-yl)-2,5-diphenyltetrazolium bromide (5 mg/ml, diluted in PBS) was added to each well. Incubation was stopped by adding 90 μl of isopropanol containing 0.04 M HCl. Content of the wells was thoroughly mixed, so that the formazan crystals, formed in case of the reduction of MTT in presence of actively metabolizing cells, were fully dissolved.

[1] = Micrococcus luteus, CIPA270, median of 3–6 experiments

Molecule	MIC (M. luteus CIP A270; [1]) [µM]	MEC of hemolysis of human erythrocytes (human erythrocytes; human, 30 min)	MEC of cytotoxic action (Murine EAC)	hemolytic action (in words) (human erythrocytes)	MEC of hemolysis of human erythrocytes (human erythrocytes; 30 min, 37°C, no blood serum)	MIC (M. luteus CIP A270; median of 3–6 experiments) [µM]	MEC of hemolysis of human erythrocytes (human erythrocytes)
CNC(C)C1CCC(N)C(OC2C(N)CC(N)C(OC3OCC(C)(O)C(NC)C3O)C2O)O1 (stereo not drawn) [Gentamicin]	0.16 (≈ 0.0764 µg/mL)	>50 [100] μM	>50 [100] μM				
CO[C@H]1/C=C/O[C@@]2(C)Oc3c(C)c(O)c4c(O)c(c(/C=N/N5CCN(C)CC5)c(O)c4c3C2=O)NC(=O)/C(C)=C\C=C\[C@H](C)[C@H](O)[C@@H](C)[C@@H](O)[C@@H](C)[C@H](OC(C)=O)[C@@H]1C [Rifampicin]	0.003 (≈ 0.00247 µg/mL)	20 µM	>20 [40] μM	slight hemolityc action			
Cc1onc(-c2ccccc2)c1C(=O)N[C@@H]1C(=O)N2[C@@H]1SC(C)(C)[C@@H]2C(=O)O [Oxacillin]	3.1 (≈ 1.24 µg/mL)	25 µM	>50 [100] μM	slight hemolityc action			
CC1COc2c(N3CCN(C)CC3)c(F)cc3c(=O)c(C(=O)O)cn1c23 (stereo not drawn) [Ofloxacin]	5 (≈ 1.81 µg/mL)	>50 [100] μM	>50 [100] μM				
CC[C@H](C)[C@H](NC(=O)[C@H](CCCCN)NC(=O)[C@H](CCC(=O)O)NC(=O)[C@H](CCCCN)NC(=O)[C@H](CO)NC(=O)[C@H](CCCCN)NC(=O)[C@H](CCCNC(=N)N)NC(=O)[C@H](Cc1ccccc1)NC(=O)[C@H](Cc1ccccc1)NC(=O)[C@H](CC(=O)O)NC(=O)CNC(=O)[C@H](CC(C)C)NC(=O)[C@@H](N)CC(C)C)C(=O)NCC(=O)N[C@@H](CCCCN)C(=O)N[C@@H](CCC(=O)O)C(=O)N[C@@H](Cc1ccccc1)C(=O)N[C@@H](CCCCN)C(=O)N[C@@H](CCCNC(=N)N)C(=O)N[C@H](C(=O)N[C@H](C(=O)N[C@@H](CCC(N)=O)C(=O)N[C@@H](CCCNC(=N)N)C(=O)N[C@H](C(=O)N[C@@H](CCCCN)C(=O)N[C@@H](CC(=O)O)C(=O)N[C@@H](Cc1ccccc1)C(=O)N[C@@H](CC(C)C)C(=O)N[C@@H](CCCNC(=N)N)C(=O)N[C@@H](CC(N)=O)C(=O)N[C@@H](CC(C)C)C(=O)N[C@H](C(=O)N1CCC[C@H]1C(=O)N[C@@H](CCCNC(=N)N)C(=O)N[C@H](C(=O)N[C@@H](CCC(=O)O)C(=O)N[C@@H](CO)C(=O)O)[C@@H](C)O)C(C)C)[C@@H](C)CC)C(C)C)[C@@H](C)CC [LL-37]			10 µM		5.0 µM		
Lysozyme: egg white lysozyme, antimicrobial protein, from BioChemica			50 µM			0.08	>50 [100] μM
Polymyxin B			50 µM		>50 [100] μM	0.6	
RFRLPFRRPPIRIHPPPFYPPFRRFL-NH2 (C-terminus assumed) [ChBac3.4]			5.0 µM				>50 [100] μM
